Reference: patent publication US20170305922A1, “CARM1 INHIBITORS AND USES THEREOF” (Epizyme, Inc., priority 2014, published 2017)

These compounds were tested against T1, Human CARM1 (PRMT4) (Homo sapiens, UniProt Q86X55) (assay: CARM1 enzyme assay on peptide substrates (3H-SAM Flashplate)). Settings: Biochemical assay; CARM1 0.25 nM, 3H-SAM 30 nM, peptide 250 nM; read-out: Biochem IC50.
T1 construct: Flag-CARM1-His was eluted with 200 ug/ml FLAG peptide in buffer A; made in house; host or cells: HEK 293F cells infected with recombinant baculovirus (pFastBacMam)
T1 sequence (Q86X55 1-585 isoform Q86X55-1): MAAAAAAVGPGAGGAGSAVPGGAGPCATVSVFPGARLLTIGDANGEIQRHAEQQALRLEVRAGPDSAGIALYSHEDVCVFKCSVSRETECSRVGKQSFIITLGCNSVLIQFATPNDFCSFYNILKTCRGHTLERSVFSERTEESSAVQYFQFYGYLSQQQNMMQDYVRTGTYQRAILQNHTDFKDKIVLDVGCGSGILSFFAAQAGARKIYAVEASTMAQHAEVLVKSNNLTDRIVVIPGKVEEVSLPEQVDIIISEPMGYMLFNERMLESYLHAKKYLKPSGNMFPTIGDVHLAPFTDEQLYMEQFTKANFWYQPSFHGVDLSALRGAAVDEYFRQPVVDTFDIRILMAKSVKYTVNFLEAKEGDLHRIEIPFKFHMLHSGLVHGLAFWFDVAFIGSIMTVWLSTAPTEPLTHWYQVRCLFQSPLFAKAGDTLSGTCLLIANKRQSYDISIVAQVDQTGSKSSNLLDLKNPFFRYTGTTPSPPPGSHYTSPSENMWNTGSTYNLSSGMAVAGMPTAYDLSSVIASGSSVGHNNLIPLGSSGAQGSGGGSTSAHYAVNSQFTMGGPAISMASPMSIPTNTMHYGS

Structure (SMILES)	IC50
CNC[C@@H](O)COc1ccc(Cl)c(-c2nc(-c3c(C)noc3C)c(C)c(N3Cc4cnc(NCCO)nc4C3)n2)c1 [Example 197]	2.6 nM
CCOc1ncc2c(n1)CN(c1nc(-c3cc(OC[C@H](O)CNC)ccc3Cl)nc(-c3c(C)noc3CC)c1C)C2 [Example 199]	5.7 nM
CC[C@H]1CN(c2nc(-c3cc(OC[C@H](O)CNC)ccc3Cl)nc(-c3c(C)noc3C)c2C)CCN1S(C)(=O)=O [Example 204]	4.3 nM
CCc1onc(C)c1-c1nc(-c2cc(OC[C@H](O)CNC)ccc2Cl)nc(N2Cc3cccnc3C2)c1C [Example 207]	1.5 nM
CNC[C@@H](O)COc1ccc(Cl)c(-c2nc(-c3c(C)noc3C)c(C)c(N3CC4(C3)CC(OC)(C(F)(F)F)C4)n2)c1 [Example 208]	5.2 nM
CNC[C@@H](O)COc1ccc(Cl)c(-c2nc(-c3c(C)noc3C)c(C)c(N3Cc4nc(C5CC5)oc4C3)n2)c1 [Example 210]	2.1 nM
CNC[C@@H](O)COc1ccc(Cl)c(-c2nc(-c3c(C)noc3C)c(C)c(N3CC4=C(C3)CN(C3CC3)C4)n2)c1 [Example 211]	1.7 nM
CNC[C@@H](O)COc1ccc(Cl)c(-c2nc(-c3c(C)noc3C)c(C)c(N3CC4(C3)CC(O)(C(F)(F)F)C4)n2)c1 [Example 213]	5.4 nM
CCN(C)c1nccc2c1CN(c1nc(-c3cc(OC[C@H](O)CNC)ccc3Cl)nc(-c3c(C)noc3C)c1C)C2 [Example 214]	1.1 nM
CNC[C@@H](O)COc1ccc(Cl)c(-c2nc(-c3c(C)noc3C)c(C)c(N3CCN(C(=O)OC)CC3)n2)c1 [Example 216]	5.4 nM
CNC[C@@H](O)COc1ccc(Cl)c(-c2nc(-c3c(C)noc3C)c(C)c(N3CC4(C3)CC(OC)(C(F)F)C4)n2)c1 [Example 217]	4.7 nM
CNC[C@@H](O)COc1ccc(Cl)c(-c2nc(-c3c(C)noc3C)c(C)c(N3CC4(CN(C(=O)OCC(F)(F)F)C4)C3)n2)c1 [Example 219]	5.5 nM

The remaining lines, values ahead:

IC50	Structure (SMILES)
0.4 nM	CNC[C@@H](O)COc1ccc(Cl)c(-c2nc(-c3c(C)noc3C)c(C)c(N3CC4=C(C3)CN(c3nc(-c5cc(OC[C@H](O)CNC)ccc5Cl)nc(-c5c(C)noc5C)c3C)C4)n2)c1 [Example 198]
2.1 nM	CNC[C@@H](O)COc1ccc(Cl)c(-c2nc(-c3c(C)noc3C)c(C)c(N3Cc4ccnc(C)c4C3)n2)c1 [Example 200]
4.8 nM	CNC[C@@H](O)COc1ccc(Cl)c(-c2nc(-c3c(C)noc3C)c(C)c(N3CCN(CC(F)(F)F)CC3)n2)c1 [Example 201]
3.3 nM	CC[C@@H]1CN(c2nc(-c3cc(OC[C@H](O)CNC)ccc3Cl)nc(-c3c(C)noc3C)c2C)CCN1S(C)(=O)=O [Example 202]
4.6 nM	CC[C@@H]1CN(c2nc(-c3cc(OC[C@H](O)CNC)ccc3Cl)nc(-c3c(C)noc3C)c2C)CCN1CC(F)F [Example 203]
3.7 nM	CC[C@@H]1CN(c2nc(-c3cc(OC[C@H](O)CNC)ccc3Cl)nc(-c3c(C)noc3C)c2C)CCN1C(=O)OC [Example 205]
5.4 nM	CC[C@H]1CN(c2nc(-c3cc(OC[C@H](O)CNC)ccc3Cl)nc(-c3c(C)noc3C)c2C)CCN1C(=O)OC [Example 206]
0.6 nM	CNC[C@@H](O)COc1ccc(Cl)c(-c2nc(-c3c(C)noc3C)c(C)c(N3Cc4nccc(N(C)C)c4C3)n2)c1 [Example 209]
2.1 nM	CNC[C@@H](O)COc1ccc(Cl)c(-c2nc(-c3c(C)noc3C)c(C)c(N3Cc4ccnc(OC)c4C3)n2)c1 [Example 212]
4.4 nM	CNC[C@@H](O)COc1ccc(Cl)c(-c2nc(-c3c(C)c(Br)nn3C)c(C)c(N3CC4(CN(CC(F)(F)F)C4)C3)n2)c1 [Example 215]
6 nM	CNC[C@@H](O)COc1ccc(Cl)c(-c2nc(-c3c(C)noc3C)c(C)c(N3CC4(C3)CC(O)(C(F)F)C4)n2)c1 [Example 218]

What follows are compounds tested on asymmetric di-methyl PABP1 in RKO cells (assay: RKO methylation assay: In Cell Western (ICW) for asymmetric di-methyl PABP1 (PABP1me2a)). Settings: Homo sapiens, RKO, 48 h, Cellular-based (PABP1me2a) ICW (In Cell Western) assay.
In short: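 In-cell western on compound-exposed RKO cells (48 hours): asymmetric di-methyl PABP1 detected by antibody at 800 nm, DNA content by DRAQ5 at 700 nm. Percent inhibition from signal ratios against DMSO (minimum) and 20 μM reference compound (maximum) wells; IC50 curves fitted from triplicates.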

Structure (SMILES)	IC50
CNC[C@@H](O)COc1ccc(Cl)c(-c2nc(-c3c(C)noc3C)c(C)c(N3Cc4cnc(NCCO)nc4C3)n2)c1 [Example 197]	381 nM
CCOc1ncc2c(n1)CN(c1nc(-c3cc(OC[C@H](O)CNC)ccc3Cl)nc(-c3c(C)noc3CC)c1C)C2 [Example 199]	84 nM
CC[C@H]1CN(c2nc(-c3cc(OC[C@H](O)CNC)ccc3Cl)nc(-c3c(C)noc3C)c2C)CCN1S(C)(=O)=O [Example 204]	486 nM
CCc1onc(C)c1-c1nc(-c2cc(OC[C@H](O)CNC)ccc2Cl)nc(N2Cc3cccnc3C2)c1C [Example 207]	74 nM
CNC[C@@H](O)COc1ccc(Cl)c(-c2nc(-c3c(C)noc3C)c(C)c(N3CC4(C3)CC(OC)(C(F)(F)F)C4)n2)c1 [Example 208]	142 nM
CNC[C@@H](O)COc1ccc(Cl)c(-c2nc(-c3c(C)noc3C)c(C)c(N3Cc4nc(C5CC5)oc4C3)n2)c1 [Example 210]	120 nM
CNC[C@@H](O)COc1ccc(Cl)c(-c2nc(-c3c(C)noc3C)c(C)c(N3CC4=C(C3)CN(C3CC3)C4)n2)c1 [Example 211]	75 nM
CNC[C@@H](O)COc1ccc(Cl)c(-c2nc(-c3c(C)noc3C)c(C)c(N3CC4(C3)CC(O)(C(F)(F)F)C4)n2)c1 [Example 213]	330 nM
CCN(C)c1nccc2c1CN(c1nc(-c3cc(OC[C@H](O)CNC)ccc3Cl)nc(-c3c(C)noc3C)c1C)C2 [Example 214]	46 nM
CNC[C@@H](O)COc1ccc(Cl)c(-c2nc(-c3c(C)noc3C)c(C)c(N3CCN(C(=O)OC)CC3)n2)c1 [Example 216]	415 nM
CNC[C@@H](O)COc1ccc(Cl)c(-c2nc(-c3c(C)noc3C)c(C)c(N3CC4(C3)CC(OC)(C(F)F)C4)n2)c1 [Example 217]	101 nM
CNC[C@@H](O)COc1ccc(Cl)c(-c2nc(-c3c(C)noc3C)c(C)c(N3CC4(CN(C(=O)OCC(F)(F)F)C4)C3)n2)c1 [Example 219]	129 nM

Second part, the compound after the results:

IC50	Structure (SMILES)
171 nM	CNC[C@@H](O)COc1ccc(Cl)c(-c2nc(-c3c(C)noc3C)c(C)c(N3CC4=C(C3)CN(c3nc(-c5cc(OC[C@H](O)CNC)ccc5Cl)nc(-c5c(C)noc5C)c3C)C4)n2)c1 [Example 198]
47 nM	CNC[C@@H](O)COc1ccc(Cl)c(-c2nc(-c3c(C)noc3C)c(C)c(N3Cc4ccnc(C)c4C3)n2)c1 [Example 200]
295 nM	CNC[C@@H](O)COc1ccc(Cl)c(-c2nc(-c3c(C)noc3C)c(C)c(N3CCN(CC(F)(F)F)CC3)n2)c1 [Example 201]
233 nM	CC[C@@H]1CN(c2nc(-c3cc(OC[C@H](O)CNC)ccc3Cl)nc(-c3c(C)noc3C)c2C)CCN1S(C)(=O)=O [Example 202]
200 nM	CC[C@@H]1CN(c2nc(-c3cc(OC[C@H](O)CNC)ccc3Cl)nc(-c3c(C)noc3C)c2C)CCN1CC(F)F [Example 203]
202 nM	CC[C@@H]1CN(c2nc(-c3cc(OC[C@H](O)CNC)ccc3Cl)nc(-c3c(C)noc3C)c2C)CCN1C(=O)OC [Example 205]
696 nM	CC[C@H]1CN(c2nc(-c3cc(OC[C@H](O)CNC)ccc3Cl)nc(-c3c(C)noc3C)c2C)CCN1C(=O)OC [Example 206]
129 nM	CNC[C@@H](O)COc1ccc(Cl)c(-c2nc(-c3c(C)noc3C)c(C)c(N3Cc4nccc(N(C)C)c4C3)n2)c1 [Example 209]
40 nM	CNC[C@@H](O)COc1ccc(Cl)c(-c2nc(-c3c(C)noc3C)c(C)c(N3Cc4ccnc(OC)c4C3)n2)c1 [Example 212]
23 nM	CNC[C@@H](O)COc1ccc(Cl)c(-c2nc(-c3c(C)c(Br)nn3C)c(C)c(N3CC4(CN(CC(F)(F)F)C4)C3)n2)c1 [Example 215]
419 nM	CNC[C@@H](O)COc1ccc(Cl)c(-c2nc(-c3c(C)noc3C)c(C)c(N3CC4(C3)CC(O)(C(F)F)C4)n2)c1 [Example 218]
